Results taken from ChEMBL document CHEMBL2057180, “Triterpenes from Alisma orientalis act as farnesoid X receptor agonists” (Bioorg Med Chem Lett, 2012).
Calls of active or inactive are those of the source. The rule behind the calls is not given here.

How the values were obtained:
[1] = system: HepG2; experiment: Cytotoxicity against human HepG2 cells; assay type: cell-based
[2] = target: T1, Bile acid receptor (Homo sapiens) (UniProt Q96RI1); experiment: Agonist activity at FXR LBD expressed in human HepG2 cells co-expressing GAL4 DBD and pG5-luc assessed as luciferase activity at 1 uM after 48 hrs by transient transfection reporter assay relative to control; assay type: functional, cell-based
T1 sequence (whole entry): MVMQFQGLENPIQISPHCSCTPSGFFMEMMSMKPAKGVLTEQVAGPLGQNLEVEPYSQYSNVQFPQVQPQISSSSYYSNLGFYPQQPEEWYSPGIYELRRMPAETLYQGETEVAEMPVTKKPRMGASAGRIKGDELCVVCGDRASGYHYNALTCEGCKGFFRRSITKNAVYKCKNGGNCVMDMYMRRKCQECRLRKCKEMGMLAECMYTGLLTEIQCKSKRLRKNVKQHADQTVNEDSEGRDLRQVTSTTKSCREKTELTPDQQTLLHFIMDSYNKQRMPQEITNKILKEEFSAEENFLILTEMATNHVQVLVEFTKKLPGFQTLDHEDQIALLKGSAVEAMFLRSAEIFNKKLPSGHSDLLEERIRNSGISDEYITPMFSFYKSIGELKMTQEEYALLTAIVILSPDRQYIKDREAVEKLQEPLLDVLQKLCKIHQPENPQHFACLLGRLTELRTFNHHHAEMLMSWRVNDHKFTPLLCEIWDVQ

[3] = target: T1, Bile acid receptor (Homo sapiens); experiment: Agonist activity at FXR LBD expressed in human HepG2 cells co-expressing GAL4 DBD and pG5-luc assessed as luciferase activity at 100 nM after 48 hrs by transient transfection reporter assay relative to control; assay type: functional, cell-based
[4] = target: T1, Bile acid receptor (Homo sapiens); experiment: Agonist activity at FXR LBD expressed in human HepG2 cells co-expressing GAL4 DBD and pG5-luc assessed as SHP promoter-driven luciferase activity at 1 uM after 48 hrs by transient transfection reporter assay relative to control; assay type: functional, cell-based
[5] = target: T1, Bile acid receptor (Homo sapiens); experiment: Agonist activity at FXR LBD expressed in human HepG2 cells co-expressing GAL4 DBD and pG5-luc assessed as SHP promoter-driven luciferase activity at 100 nM after 48 hrs by transient transfection reporter assay relative to control; assay type: functional, cell-based
[6] = target: T1, Bile acid receptor (Homo sapiens); experiment: Agonist activity at FXR LBD expressed in human HepG2 cells co-expressing GAL4 DBD and pG5-luc assessed as transrepression of rat CYP7A1 promoter-driven luciferase activity at 100 nM after 48 hrs by transient transfection reporter assay relative to control; assay type: functional, cell-based
[7] = target: T1, Bile acid receptor (Homo sapiens); experiment: Agonist activity at FXR LBD expressed in human HepG2 cells co-expressing GAL4 DBD and pG5-luc assessed as transrepression of rat CYP7A1 promoter-driven luciferase activity after 48 hrs by transient transfection reporter assay relative to control; assay type: functional, cell-based
[8] = target: T1, Bile acid receptor (Homo sapiens); experiment: Agonist activity at FXR LBD expressed in human HepG2 cells co-expressing GAL4 DBD and pG5-luc assessed as PLTP promoter-driven luciferase activity at 100 nM after 48 hrs by transient transfection reporter assay relative to control; assay type: functional, cell-based
[9] = target: T1, Bile acid receptor (Homo sapiens); experiment: Agonist activity at FXR LBD expressed in human HepG2 cells co-expressing GAL4 DBD and pG5-luc assessed as PLTP promoter-driven luciferase activity after 48 hrs by transient transfection reporter assay relative to control; assay type: functional, cell-based

Ratio [2] | Activity [3] | Ratio [4] | Activity [5] | Activity [6] | Activity [7] | Activity [8] | Activity [9] | SMILES | Activity [1]
2 | inactive | 1.6 | inactive | 85% | Dose-dependent effect | inactive | Dose-dependent effect | CC(=O)O[C@@H](C[C@@H](C)C1=C2[C@H](O)[C@H](O)[C@H]3[C@@]4(C)CCC(=O)C(C)(C)[C@@H]4CC[C@]3(C)[C@@]2(C)CC1=O)[C@H]1OC1(C)C | Non-toxic
2 | inactive | 1.6 | inactive | inactive | Dose-dependent effect | inactive | Dose-dependent effect | CC(=O)O[C@@H](C[C@@H](C)C1=C2C[C@H](O)[C@H]3[C@@]4(C)CCC(=O)C(C)(C)[C@@H]4CC[C@]3(C)[C@@]2(C)CC1)[C@@H](O)C(C)(C)O | Non-toxic
 |  |  |  |  |  |  |  | C[C@H](C[C@H](O)[C@H]1OC1(C)C)C1=C2C[C@H](O)[C@H]3[C@@]4(C)CCC(=O)C(C)(C)[C@@H]4CC[C@]3(C)[C@@]2(C)CC1 [ALISOL B] | Toxic
